The source of these data is patent US9527867B2, “Antibacterial biaromatic derivatives” (Actelion Pharmaceuticals Ltd., priority 2013, dated 2016).

Molecules are shown by their SMILES. Values after ≈ are worked out from the molar mass of the structure shown.

Holding throughout (assay): Bacterial growth minimal inhibitory concentration (broth microdilution, CLSI M7-A7)
Common to all, as to type: cell-based
(In broth dilution the organism is exposed to a series of concentrations in liquid medium.)

Assay [1] concerns Acinetobacter baumannii T6474. To be noted: multiply-resistant strain (in particular quinolone-resistant); for MIC: Acinetobacter baumannii, T6474, cation-adjusted Mueller-Hinton Broth. In a few lines: (§1)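 Cation-adjusted MH broth, microdilution, CLSI M7-A7; MIC in mg/L. Strains: S. aureus A798 and A. baumannii T6474 multiresistant (quinolone-R); S. aureus ATCC29213 MSSA, quinolone-S; M. catarrhalis A894 quinolone-S.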

The test system of assay [2] is Enterococcus faecium A949. The settings on record: multiply-resistant strain (in particular quinolone-resistant); for MIC: Enterococcus faecium, A949, cation-adjusted Mueller-Hinton Broth, read-out: MIC for E. faecium A949. The method, boiled down: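 Broth microdilution after CLSI M7-A7 in cation-adjusted Mueller-Hinton medium gave MIC values in mg/L.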
For assay [3], the system named is Moraxella catarrhalis A894. The settings on record: quinolone-sensitive strain; for MIC: Moraxella catarrhalis, A894, cation-adjusted Mueller-Hinton Broth. The method, boiled down: as §1
Assay [4] has as its system Staphylococcus aureus A798. The settings on record: multiply-resistant strain (in particular quinolone-resistant); for MIC: Staphylococcus aureus, A798, cation-adjusted Mueller-Hinton Broth, read-out: MIC for S. aureus A798. The method, boiled down:
as §1

Assay [5] has as its system Staphylococcus aureus ATCC29213. The settings on record: methicillin-sensitive and quinolone-sensitive strain; for MIC: Staphylococcus aureus, ATCC29213, cation-adjusted Mueller-Hinton Broth, read-out: MIC for S. aureus ATCC29213. The method, boiled down: as §1
Where [6] appears, read: cation-adjusted Mueller-Hinton Broth.

By MIC is commonly meant the least concentration at which growth counts as inhibited. Take `COc1cncc(-c2cccc(CNCC[C@H]3CN(c4ccc5c(n4)NC(=O)CO5)C(=O)O3)c2)n1` [Example 91, 6-((S)-5-{2-[3-(6-methoxy-pyrazin-2-yl)-benzylamino]-ethyl}-2-oxo-oxazolidin-3-yl)-4H-pyrido[3,2-b][1,4]oxazin-3-one]: the minimum inhibitory concentration (MIC) is 0.063 µg/mL (≈ 0.132 µM) in assay [1]; 2 µg/mL (≈ 4.2 µM) in assay [2]; no more than 0.016 µg/mL in assay [3]; 0.031 µg/mL (≈ 0.0651 µM) in assay [4]; 0.031 µg/mL (≈ 0.0651 µM) in assay [5].

Regarding `N#Cc1cccc(-c2cccc(CNCC[C@H]3CN(c4ccc5c(n4)NC(=O)CO5)C(=O)O3)c2O)n1` [Example 92, 6-[2-hydroxy-3-({2-[(S)-2-oxo-3-(3-oxo-3,4-dihydro-2H-pyrido[3,2-b][1,4]oxazin-6-yl)-oxazolidin-5-yl]-ethylamino}-methyl)-phenyl]-pyridine-2-carbonitrile], the MIC in assay [1] was 0.063 µg/mL (≈ 0.129 µM); in assay [2], 0.5 µg/mL (≈ 1.03 µM); in assay [3], no more than 0.016 µg/mL; in assay [4] it was no more than 0.016 µg/mL; in assay [5], 0.031 µg/mL (≈ 0.0637 µM).

On to `COc1cccc(-c2cccc(CNCC[C@H]3CN(c4ccc5c(n4)NC(=O)CO5)C(=O)O3)c2O)n1` [Example 93, 6-((S)-5-{2-[2-hydroxy-3-(6-methoxy-pyridin-2-yl)-benzylamino]-ethyl}-2-oxo-oxazolidin-3-yl)-4H-pyrido[3,2-b][1,4]oxazin-3-one], for which the MIC in assay [1] was 0.063 µg/mL (≈ 0.128 µM); in assay [2], 0.25 µg/mL (≈ 0.509 µM); in assay [3] it was no more than 0.016 µg/mL; in assay [4] it was no more than 0.016 µg/mL; in assay [5], no more than 0.016 µg/mL.

Consider `N#Cc1cccc(-c2cccc(CNCC[C@H]3CN(c4ccc5c(n4)NC(=O)CS5)C(=O)O3)c2O)n1` [Example 94, 6-[2-hydroxy-3-({2-[(S)-2-oxo-3-(3-oxo-3,4-dihydro-2H-pyrido[3,2-b][1,4]thiazin-6-yl)-oxazolidin-5-yl]-ethylamino}-methyl)-phenyl]-pyridine-2-carbonitrile], for which the MIC was 0.031 µg/mL (≈ 0.0617 µM) in assay [1]; 0.125 µg/mL (≈ 0.249 µM) in assay [2]; no more than 0.016 µg/mL in assay [3]; no more than 0.016 µg/mL in assay [4]; no more than 0.016 µg/mL in assay [5].

For the compound `COc1cccc(-c2cccc(CNCC[C@H]3CN(c4ccc5c(n4)NC(=O)CS5)C(=O)O3)c2O)n1` [Example 95, 6-((S)-5-{2-[2-hydroxy-3-(6-methoxy-pyridin-2-yl)-benzylamino]-ethy}-2-oxo-oxazolidin-3-yl)-4H-pyrido[3,2-b][1,4]thiazin-3-one], the “MIC for A. baumannii T6474” value in assay [1] (setting [6]) was 0.063 µg/mL. For the same compound, the “MIC for E. faecium A949” value in assay [2] (setting [6]) was found to be 0.125 µg/mL. Further, the “MIC for M. catarrhalis A894” value in assay [3] (setting [6]) was “≦0.016 mg/L”. Moreover, the “MIC for S. aureus A798” value in assay [4] (setting [6]) is “≦0.016 mg/L”. For the same compound, in assay [5] (setting [6]), the “MIC for S. aureus ATCC29213” value was “≦0.016 mg/L”.

Take `N#Cc1cccc(-c2cccc(CNCCc3cn(-c4ccc5c(n4)NC(=O)CO5)c(=O)o3)c2O)n1` [Example 96, 6-[2-hydroxy-3-({2-[2-oxo-3-(3-oxo-3,4-dihydro-2H-pyrido[3,2-b][1,4]oxazin-6-yl)-2,3-dihydro-oxazol-5-yl]-ethylamino}-methyl)-phenyl]-pyridine-2-carbonitrile]: the minimal inhibitory concentration (MIC) in assay [1] was 0.125 µg/mL (≈ 0.258 µM); in assay [2], 1 µg/mL (≈ 2.06 µM); in assay [3] it was no more than 0.016 µg/mL; in assay [4], 0.031 µg/mL (≈ 0.064 µM); in assay [5], 0.031 µg/mL (≈ 0.064 µM).

Take `COc1cnnc(-c2cccc(CNCC[C@@H]3CN(c4ccc5c(n4)NC(=O)CO5)C(=O)O3)c2)c1` [Example 97, 6-((R)-5-{2-[3-(5-methoxy-pyridazin-3-yl)-benzylamino]-ethyl}-2-oxo-oxazolidin-3-yl)-4H-pyrido[3,2-b][1,4]oxazin-3-one]: the MIC in assay [1] worked out at 0.25 µg/mL (≈ 0.525 µM); in assay [2], 8 µg/mL (≈ 16.8 µM); in assay [3], 0.031 µg/mL (≈ 0.0651 µM); in assay [4], 0.25 µg/mL (≈ 0.525 µM); in assay [5], 0.25 µg/mL (≈ 0.525 µM).
